Data set [1] addresses T1, OCT3 (SLC22A3) (Homo sapiens, UniProt O75751).
T1 sequence (O75751 whole entry): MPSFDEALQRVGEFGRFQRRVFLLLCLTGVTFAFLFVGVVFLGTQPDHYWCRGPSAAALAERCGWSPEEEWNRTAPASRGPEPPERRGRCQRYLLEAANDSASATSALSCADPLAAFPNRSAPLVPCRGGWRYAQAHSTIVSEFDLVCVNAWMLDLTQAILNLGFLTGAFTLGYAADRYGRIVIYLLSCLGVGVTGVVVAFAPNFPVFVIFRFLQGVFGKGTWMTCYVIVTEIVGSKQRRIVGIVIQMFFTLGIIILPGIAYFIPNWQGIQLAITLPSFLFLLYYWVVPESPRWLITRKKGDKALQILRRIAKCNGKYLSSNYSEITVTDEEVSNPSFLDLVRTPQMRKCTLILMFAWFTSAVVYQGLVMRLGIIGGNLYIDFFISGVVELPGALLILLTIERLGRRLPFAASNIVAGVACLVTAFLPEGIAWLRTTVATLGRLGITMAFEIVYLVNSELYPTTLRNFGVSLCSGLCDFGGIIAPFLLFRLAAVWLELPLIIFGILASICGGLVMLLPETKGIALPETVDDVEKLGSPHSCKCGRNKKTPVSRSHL
Nature of the data set: (§1) Inhibition of human OCT3 overexpressed in HEK293 cells assessed as intracellularly accumulation of ASP+ at 20 uM incubated for 5 mins by HPLC-MS/MS analysis relative to control. The class given is cell-based. As to conditions: HEK293 cells overexpressing OCT3, probe ASP+; call rule not given here.

Data set [2] deals with T1, OCT3 (SLC22A3). Nature of the data set: Inhibition of OCT3 (unknown origin) overexpressed in HEK293 cells assessed as intracellular accumulation of ASP+ incubated for 2 mins by Analyst AD plate reader method relative to control. The class given is cell-based. More on the design: concentration or dose not given beside the values. Conditions: HEK293 cells overexpressing OCT3, probe ASP+.

The target in data set [3] is Solute carrier family 22 member 2 (Homo sapiens) (UniProt O15244). Nature of the data set: Inhibition of OCT2 mediated (unknown origin) assessed as intracellular accumulation of ASP+ relative to control.
Solute carrier family 22 member 2 (Homo sapiens), sequence (O15244 whole entry, looked up): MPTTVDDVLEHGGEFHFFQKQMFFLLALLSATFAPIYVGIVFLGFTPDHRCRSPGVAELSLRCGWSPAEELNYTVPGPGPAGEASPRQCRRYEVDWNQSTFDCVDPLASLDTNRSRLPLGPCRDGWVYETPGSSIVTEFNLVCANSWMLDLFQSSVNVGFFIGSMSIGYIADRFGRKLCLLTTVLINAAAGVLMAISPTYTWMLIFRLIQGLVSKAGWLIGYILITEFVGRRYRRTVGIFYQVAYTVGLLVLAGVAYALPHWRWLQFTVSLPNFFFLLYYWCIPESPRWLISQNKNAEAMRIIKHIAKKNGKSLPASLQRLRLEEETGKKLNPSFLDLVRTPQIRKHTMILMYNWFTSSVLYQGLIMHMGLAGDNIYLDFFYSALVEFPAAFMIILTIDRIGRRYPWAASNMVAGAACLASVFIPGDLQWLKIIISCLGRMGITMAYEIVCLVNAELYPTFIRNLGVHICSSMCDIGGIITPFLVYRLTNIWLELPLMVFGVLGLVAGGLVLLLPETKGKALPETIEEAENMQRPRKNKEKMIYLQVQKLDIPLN
Data set [4] has as its target T1, OCT3 (SLC22A3). The data set is described as follows: Substrate activity at human OCT3 overexpressed in HEK293 cells assessed as uptake ratio incubated for 2 mins by LC-MS/MS analysis. The class given is ADME, cell-based. As to conditions: HEK293 cells overexpressing OCT3.
Data set [5] deals with T1, OCT3 (SLC22A3). The data set is described as follows: Inhibition of human OCT3 mediated ASP+ uptake overexpressed in HEK293 cells at 20 uM incubated for 5 mins by HPLC-MS/MS analysis relative to control. The class given is cell-based. Conditions: HEK293 cells overexpressing OCT3, probe ASP+.
In data set [6] the target is T1, OCT3 (SLC22A3). The data set is described as follows: Inhibition of human OCT3 mediated Famotidine uptake overexpressed in HEK293 cells at 20 uM incubated for 5 mins by HPLC-MS/MS analysis relative to control. Type of data set: cell-based. Conditions: HEK293 cells overexpressing OCT3, probe Famotidine.
The target of data set [7] is T1, OCT3 (SLC22A3). Nature of the data set: Inhibition of human OCT3 mediated N-Ethyllidocaine uptake overexpressed in HEK293 cells at 20 uM incubated for 5 mins by HPLC-MS/MS analysis relative to control. Conditions: HEK293 cells overexpressing OCT3, probe N-Ethyllidocaine. Type of data set: cell-based.
Data set [8] has as its target T1, OCT3 (SLC22A3). Nature of the data set: Inhibition of human OCT3 mediated methylscopolamine uptake overexpressed in HEK293 cells at 20 uM incubated for 5 mins by HPLC-MS/MS analysis relative to control. Type of data set: cell-based. Conditions: HEK293 cells overexpressing OCT3, probe methylscopolamine.
For data set [9], the target named is OCT2 (Homo sapiens, UniProt O15244). Nature of the data set: Substrate activity at human OCT2 overexpressed in HEK293 cells assessed as uptake ratio incubated for 2 mins by LC-MS/MS analysis. The class given is ADME, cell-based. As to conditions: HEK293 cells overexpressing OCT2.
OCT2, sequence (O15244 whole entry, looked up): as above
The target of data set [10] is OCT1 (Homo sapiens, UniProt O15245). The data set is described as follows: Substrate activity at OCT1 (unknown origin) assessed as uptake ratio. Type of data set: ADME, cell-based. As to conditions: HEK293 cells.
OCT1, sequence (O15245 whole entry, looked up): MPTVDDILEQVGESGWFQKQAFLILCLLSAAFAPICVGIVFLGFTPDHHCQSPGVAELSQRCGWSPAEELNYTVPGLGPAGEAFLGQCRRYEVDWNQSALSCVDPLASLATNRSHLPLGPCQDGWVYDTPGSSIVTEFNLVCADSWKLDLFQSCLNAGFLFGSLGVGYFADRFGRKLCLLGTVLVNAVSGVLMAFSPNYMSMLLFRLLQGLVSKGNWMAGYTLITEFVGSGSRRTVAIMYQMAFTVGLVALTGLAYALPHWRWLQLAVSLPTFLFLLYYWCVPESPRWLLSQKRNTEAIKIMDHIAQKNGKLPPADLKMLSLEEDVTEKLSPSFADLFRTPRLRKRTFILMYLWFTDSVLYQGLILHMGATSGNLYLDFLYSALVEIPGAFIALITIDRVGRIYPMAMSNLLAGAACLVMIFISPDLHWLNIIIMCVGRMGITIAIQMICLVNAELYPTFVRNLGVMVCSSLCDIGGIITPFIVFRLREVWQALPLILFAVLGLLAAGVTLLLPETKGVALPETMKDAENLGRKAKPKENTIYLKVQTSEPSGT
Data set [11] has as its target T1, OCT3 (SLC22A3). The data set is described as follows: Inhibition of human OCT3 mediated (S,S)-Ethambutol uptake overexpressed in HEK293 cells at 20 uM incubated for 5 mins by HPLC-MS/MS analysis relative to control. Type of data set: cell-based. As to conditions: HEK293 cells overexpressing OCT3, probe (S,S)-Ethambutol.
In data set [12] the target is T2, Solute carrier family 22 member 3 (Homo sapiens, UniProt O75751).
T2 sequence (O75751 whole entry): T1 sequence (O75751 whole entry)
The data set is described as §1. Type of data set: cell-based. As to conditions: hek293, 5 min, 20 µM.

As for `CN(C)c1ccc(C(=C2C=CC(=[N+](C)C)C=C2)c2ccc(N(C)C)cc2)cc1` [GENTIAN VIOLET], the inhibition at 5 min, 20 µM in data set [1] came out at 81.4%. Besides, in data set [2], the inhibition at 2 min worked out at 107%. Further, the inhibition in data set [3] was 116%.

For the compound `CC(C)(C)NCC(O)c1ccc(O)c(O)c1` (stereo unspecified) [COLTEROL], in [4], the uptake ratio at 2 min worked out at 53.

For the compound `CC[C@@H](CO)NCCN[C@@H](CC)CO` [ETHAMBUTOL], the inhibition at 5 min, 20 µM in data set [5] was 7%; in data set [6], -1%; in data set [7], -7%; in data set [8], -13%.

For `CN(C)CCc1c[nH]c2ccc(Cn3cncn3)cc12` [RIZATRIPTAN], the figures for the uptake ratio at 2 min in data set [4] and in data set [9] were 2.4 and 4.1, respectively. The uptake ratio in data set [10] stood at 4.3.

As for `C[N+]1(CC2CC2)CC[C@]23c4c5ccc(O)c4O[C@H]2C(=O)CC[C@@]3(O)[C@H]1C5` (stereo partly specified) [METHYLNALTREXONE], the uptake ratio at 2 min in data set [4] turned out to be 102.

Take `Cc1nc2n(c(=O)c1CCN1CCC(c3noc4cc(F)ccc34)CC1)CCCC2O` (stereo unspecified) [PALIPERIDONE]: in data set [1], the inhibition at 5 min, 20 µM came to 87.7%.

With `C[N+]1(C)[C@@H]2C[C@H](OC(=O)[C@H](CO)c3ccccc3)C[C@H]1[C@@H]1O[C@@H]12`, the inhibition at 5 min, 20 µM worked out at 0% in [5], 27% in data set [11], 40% in data set [6] and 21% in [7].

Take `CCCCC(CC)CNC(=N)NC(=N)NCCCCCCNC(=N)NC(=N)NCC(CC)CCCC` (stereo unspecified) [ALEXIDINE]: the inhibition at 5 min, 20 µM in data set [1] was 103%. In addition, the inhibition at 2 min in [2] was 98.1%.

With `C[C@@H](Oc1cc(-c2cnn(C3CCNCC3)c2)cnc1N)c1c(Cl)ccc(F)c1Cl` [CRIZOTINIB], the inhibition at 5 min, 20 µM in [1] turned out to be 90.4%.

In the case of `Cc1cc(N)c2ccccc2[n+]1CCCCCCCCCC[n+]1c(C)cc(N)c2ccccc21`, in data set [2], the inhibition at 2 min turned out to be 66.6%.

In the case of `CN(C)CCc1c[nH]c2ccc(C[C@H]3COC(=O)N3)cc12` [ZOLMITRIPTAN], the uptake ratio at 2 min was 22 in [4] and 1.2 in [9]. Also, in [10], the uptake ratio was determined as 9.3.

For `O=C(O[C@H]1C[C@H]2CC[C@@H](C1)[N+]21CCCC1)C(O)(c1ccccc1)c1ccccc1` [TROSPIUM], in [12], the “inhibition (INH)” value is given as “Active”.

Regarding `CC(=O)S[C@@H]1CC2=CC(=O)CC[C@]2(C)[C@H]2CC[C@@]3(C)[C@@H](CC[C@@]34CCC(=O)O4)[C@H]12` [SPIRONOLACTONE], the inhibition at 5 min, 20 µM in data set [1] amounted to 93.9%. The inhibition in data set [3] amounted to 84.2%.

Consider `CC[N+](CC)(CC)Cc1ccccc1`, for which the uptake ratio at 2 min in [4] came out at 62.5. Further, the inhibition at 5 min, 20 µM in [5] stood at 5%; in data set [8], 49%.

Regarding `CNCC/C=C1\c2ccccc2CC(O)c2ccccc21` (stereo unspecified), the inhibition at 5 min, 20 µM in [1] worked out at 86.7%.

Regarding `CN(C)c1ccc(/C=C/c2cc[n+](C)cc2)cc1`, the inhibition at 5 min, 20 µM in [11] was 51%; in [6], 63%; in [7], 70%; in data set [8], 58%.

Take `CC(C)[N+]1(C)[C@@H]2CC[C@H]1C[C@@H](OC(=O)C(CO)c1ccccc1)C2` (stereo partly specified) [IPRATROPIUM]: in [1], the inhibition at 5 min, 20 µM worked out at 79.1%. Moreover, the inhibition at 2 min in data set [2] came out at 47.8%.

Take `CN[C@@H]1CCc2[nH]c3ccc(C(N)=O)cc3c2C1` [FROVATRIPTAN]: the uptake ratio at 2 min in data set [4] was 7.7; in [9] it was 10.8. Also, the uptake ratio in data set [10] was 30.3.

In the case of `CCC(NC(C)C)C(O)c1ccc(O)c(O)c1` (stereo unspecified) [ISOETHARINE], the uptake ratio at 2 min in data set [4] was 23.3.

For the compound `[H]/N=C(\N/C(=N/[H])NCCCCCCNC(=N)NC(=N)Nc1ccc(Cl)cc1)Nc1ccc(Cl)cc1` [CHLORHEXIDINE], the inhibition at 5 min, 20 µM in data set [1] worked out at 98.4%. Further, in [2], the inhibition at 2 min came out at 98.4%.

Take `N=C(N)N1Cc2ccccc2C(O)C1` (stereo unspecified): in [4], the uptake ratio at 2 min amounted to 38.

`CN(C)CCC=C1c2ccccc2CC(O)c2ccccc21` (stereo unspecified): the inhibition at 5 min, 20 µM in [1] was 79.3%.

Consider `Cc1ccc(O)c([C@H](CCN(C(C)C)C(C)C)c2ccccc2)c1` [TOLTERODINE], for which the inhibition at 5 min, 20 µM in data set [1] is 96.1%.

Regarding `C[N+]1(C)CCN(c2ccccc2)CC1` [DIMETHYLPHENYLPIPERAZINIUM], the uptake ratio at 2 min in [4] was determined as 46.

For the compound `[H]/N=C(/N)N/C(=N/[H])NCCc1ccccc1` [PHENFORMIN], the uptake ratio at 2 min in data set [4] worked out at 32.2.

Consider `CNCCC=C1c2ccccc2CCc2ccccc21` [NORTRIPTYLINE], for which the inhibition at 5 min, 20 µM in data set [1] stood at 80%.

Regarding `N=C(NCCCCCCNC(=N)NC(=N)Nc1ccc(Cl)cc1)NC(=N)Nc1ccc(Cl)cc1`, the inhibition in data set [3] was 105%.

As for `C[N+]1(C)[C@@H]2C[C@H](OC(=O)C(O)(c3cccs3)c3cccs3)C[C@H]1[C@@H]1O[C@@H]12`, the uptake ratio at 2 min in [4] stood at 50.

For `CC[N+](CC)(CC)CC(=O)Nc1c(C)cccc1C`, the uptake ratio at 2 min in data set [4] was found to be 50. Further, the inhibition at 5 min, 20 µM in [5] is 16%; in data set [11] it was 44%; in data set [6] it was 52%; in [8], 15%.

As for `COc1ccc2[nH]cc(CCN)c2c1` [5-METHOXYTRYPTAMINE], the results for the uptake ratio at 2 min in data set [4] and in [9] were 2.2 and 7.1, respectively. Also, the uptake ratio in data set [10] worked out at 3.8.

Turning to `C[N+]1(CCC(C(N)=O)(c2ccccc2)c2ccccc2)CCCCC1`, in data set [12], the “inhibition (INH)” value is listed as “Active”.

Consider `CN(C)CCC=C1c2ccccc2CCc2ccccc21` [AMITRIPTYLINE], for which the inhibition at 5 min, 20 µM in data set [1] amounted to 80%.

These data come from ChEMBL document CHEMBL5113524, “Substrates and Inhibitors of the Organic Cation Transporter 3 and Comparison with OCT1 and OCT2” (J Med Chem, 2022).
